Assay results: patent US11834451B2 (priority 2021, dated 2023)
Read-outs that look alike come from different tables or passages of the source.

Legend:
RD cells = settings: human
Vero cells = settings: African green monkey
in vitro = settings: human
EV-A71 = assay: microbe, parasite or virus in culture; format: cell-based, enterovirus A71 (EV-A71); settings: Enterovirus A, EVA71, RD
CVB3 Nancy virus = assay: microbe, parasite or virus in culture; format: cell-based, coxsackievirus B3 (CVB3); settings: Enterovirus B, CVB3, Vero, read-out: EC50, Anti-CVB3 in Vero cells
EV-D68 = assay: microbe, parasite or virus in culture; format: cell-based, enterovirus D68 (EV-D68); settings: Enterovirus D, EVD68, RD
EV-D68, EV-A71, and CVB3 = assay: organism not typed; format: cell-based; settings: for EC50: RD, read-out: EC50 values range against all EV-D68 and EV-A71 strains tested
EV-D68 US/MO/14-18947 = assay: microbe, parasite or virus in culture; format: cell-based, enterovirus D68 (EV-D68); settings: for EC50: Enterovirus D, EVD68, read-out: EC50, viral replication in neuronal cells (immunofluorescence, anti-VP1)
[1] = test system: EV-A71 Tainan/4643/1998 2C protein; format: binding
CVB3 Nancy 2C protein = CVB3 Nancy 2C protein (Coxsackievirus B3, UniProt P03313); format: binding
[2] = CC50, in RD cells (Anti-EV-A71)
[3] = read-out: EC50, Anti-EV-A71 Tainan/4643/1998 in RD cells
[4] = read-out: EC50, Anti-EV-D68 US/KY/14-18953 in RD cells
[5] = CC50 (EV-A71 USA/CT/2016-19519)
[6] = CC50 (EV-D68 US/IL/14-18952 row group)
[7] = CC50 (EV-D68 US/IL/14-18956 row group)
[8] = CC50 (EV-D68 US/KY/14-18953 row group)
[9] = CC50 (EV-D68 US/MO/14-18947 row group)
[10] = CC50 (EV-D68 US/MO/14-18949 row group)
[11] = CC50, in RD cells (Anti-EV-D68)
[12] = read-out: EC50, EV-A71 Tainan/4643/1998
[13] = read-out: EC50, EV-A71 USA/CT/2016-19519
[14] = read-out: EC50, EV-D68 US/IL/14-18952 (Clade B2)
[15] = read-out: EC50, EV-D68 US/IL/14-18956 (Clade B2)
[16] = read-out: EC50, EV-D68 US/KY/14-18953 (Clade D)
[17] = read-out: EC50, EV-D68 US/MO/14-18947 (Clade B1)
[18] = read-out: EC50, EV-D68 US/MO/14-18949 (Clade B1)

Sequence of CVB3 Nancy 2C protein (P03313 1101-1429 limits assumed): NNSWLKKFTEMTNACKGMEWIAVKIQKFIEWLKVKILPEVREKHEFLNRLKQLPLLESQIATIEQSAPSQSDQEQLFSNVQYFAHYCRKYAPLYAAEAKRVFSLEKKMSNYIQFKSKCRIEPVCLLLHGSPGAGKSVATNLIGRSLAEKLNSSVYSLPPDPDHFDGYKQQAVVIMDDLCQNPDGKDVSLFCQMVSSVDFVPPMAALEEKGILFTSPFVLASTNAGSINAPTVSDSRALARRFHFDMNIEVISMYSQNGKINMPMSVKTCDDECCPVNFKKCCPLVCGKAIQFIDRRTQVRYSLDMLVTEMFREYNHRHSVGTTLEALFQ

In the case of `Cc1cc(C(=O)NCCN)c2cnn(C(C)C)c2n1` [Compound 12e, N-(2-aminoethyl)-6-methyl-1-(propan-2-yl)-1H-pyrazolo[3,4-b]pyridine-4-carboxamide], the CC50 (RD cells) is reported as > 300 µM, the CC50 (Vero cells) is reported as > 300 µM and the CC50 (in vitro; [2]) is reported as > 300 µM. For the same compound, the EC50 (EV-A71; [3]) was 0.7 µM, the EC50 (CVB3 Nancy virus) was 3.8 µM and the EC50 (EV-D68; [4]) was 4.7 µM.

With `CCn1ncc2c(C(=O)NCCNC)cc(C)nc21` [Compound 15b, 1-ethyl-6-methyl-N-[2-(methylamino)ethyl]-1H-pyrazolo[3,4-b]pyridine-4-carboxamide] the CC50 (RD cells) was > 300 µM, the EC50 (EV-A71; [3]) was > 20 µM and the EC50 (EV-D68; [4]) was 58.4 µM.

In the case of `CNCCNC(=O)c1cc(C(C)C)nc2c1cnn2C(C)C` [Compound 10d, N-[2-(methylamino)ethyl]-1,6-bis(propan-2-yl)-1H-pyrazolo[3,4-b]pyridine-4-carboxamide], the CC50 (RD cells) is reported as > 100 µM, the CC50 (in vitro; [2]) is reported as > 100 µM and the EC50 (EV-A71; [3]) is reported as 0.1 µM. The EC50 (CVB3 Nancy virus) was 0.3 µM and the EC50 (EV-D68; [4]) was 0.4 µM.

With `CNCCNC(=O)c1cc(C2CC2)nc2c1cnn2C(C)C` [Compound 7h, 6-cyclopropyl-N-[2-(methylamino)ethyl]-1-(propan-2-yl)-1H-pyrazolo[3,4-b]pyridine-4-carboxamide] the CC50 (Vero cells) was > 100 µM, the CC50 (in vitro; CC50 (EV-A71 Tainan/4643/1998)) was 236 µM and the CC50 (in vitro; [5]) was 236 µM. It also gave a CC50 (in vitro; [6]) of 236 µM, a CC50 (in vitro; [7]) of 236 µM and a CC50 (in vitro; [8]) of 236 µM. The CC50 (in vitro; [9]) was 236 µM, the CC50 (in vitro; [10]) was 236 µM and the CC50 (in vitro; [2]) was 236 µM. The CC50 (in vitro; [11]) was 236 µM, the EC50 (EV-A71; [3]) was 0.2 µM and the EC50 (EV-A71; read-out: EC50, EV-A71 A71 MP4) was 0.3 µM. It also gave an EC50 (EV-A71; [12]) of 0.2 µM, an EC50 (EV-A71; [13]) of 0.1 µM and an EC50 (EV-D68, EV-A71, and CVB3) of 0.06 to 0.3 µM. It also gave an EC50 (CVB3 Nancy virus) of 0.2 µM, an EC50 (EV-D68 US/MO/14-18947) of 0.07 µM and an EC50 (EV-D68; [4]) of 0.2 µM. For the same compound, the EC50 (EV-D68; [14]) was 0.2 µM, the EC50 (EV-D68; [15]) was 0.2 µM and the EC50 (EV-D68; [16]) was 0.2 µM. The EC50 (EV-D68; [17]) was 0.2 µM and the EC50 (EV-D68; [18]) was 0.2 µM.

With `Cc1cc(C(=O)NC2CN(C)C2)c2cnn(C(C)C)c2n1` [Compound 12c, 6-methyl-N-(1-methylazetidin-3-yl)-1-(propan-2-yl)-1H-pyrazolo[3,4-b]pyridine-4-carboxamide] the CC50 (RD cells) was > 300 µM, the CC50 (Vero cells) was > 300 µM and the CC50 (in vitro; [2]) was > 300 µM. It also gave an EC50 (EV-A71; [3]) of 7.3 µM, an EC50 (CVB3 Nancy virus) of 3.8 µM and an EC50 (EV-D68; [4]) of 11.3 µM.

For `Cc1cc(CCCOc2c(C)cc(-c3noc(C(F)(F)F)n3)cc2C)on1` [pleconaril, reference compound], the “viral replication (VP1 fluorescence signal)” value (EV-D68 US/MO/14-18947; at 50 μM) was “completely abolished viral replication”.

For `CC(C)c1cc(C(=O)NCCN(C)C)c2cnn(C(C)C)c2n1` [Compound 10a, N-[2-(dimethylamino)ethyl]-1,6-bis(propan-2-yl)-1H-pyrazolo[3,4-b]pyridine-4-carboxamide], the CC50 (Vero cells) was > 300 µM, the EC50 (EV-A71; [3]) was 0.1 µM and the EC50 (EV-A71; read-out: EC50, EV-A71 A71 MP4) was 0.2 µM. The EC50 (EV-A71; [12]) was 0.2 µM, the EC50 (EV-A71; [13]) was 0.06 µM and the EC50 (EV-D68, EV-A71, and CVB3) was 0.06 to 0.3 µM. The EC50 (CVB3 Nancy virus) was 0.04 µM, the EC50 (EV-D68 US/MO/14-18947) was 0.03 µM and the EC50 (EV-D68; [4]) was 0.1 µM. It also gave an EC50 (EV-D68; [14]) of 0.09 µM, an EC50 (EV-D68; [15]) of 0.07 µM and an EC50 (EV-D68; [16]) of 0.1 µM. The EC50 (EV-D68; [17]) was 0.07 µM and the EC50 (EV-D68; [18]) was 0.08 µM.

With `Cc1cc(C(=O)NC2CCN(C)C2)c2cnn(C(C)C)c2n1` (stereo not drawn) [Compound 12b, 6-methyl-N-(1-methylpyrrolidin-3-yl)-1-(propan-2-yl)-1H-pyrazolo[3,4-b]pyridine-4-carboxamide] the CC50 (RD cells) was > 300 µM, the CC50 (Vero cells) was > 300 µM and the CC50 (in vitro; [2]) was > 300 µM. The EC50 (EV-A71; [3]) was 0.5 µM, the EC50 (CVB3 Nancy virus) was 0.8 µM and the EC50 (EV-D68; [4]) was 1.8 µM.

In the case of `CNCCNC(=O)c1cc(C)nc2c1cnn2C(C)C` [Compound 12d, 6-methyl-N-(methylamino)ethyl-1-(propan-2-yl)-1H-pyrazolo[3,4-b]pyridine-4-carboxamide], the CC50 (RD cells) is reported as > 300 µM, the CC50 (Vero cells) is reported as > 300 µM and the CC50 (in vitro; [2]) is reported as > 300 µM. The EC50 (EV-A71; [3]) was 0.5 µM, the EC50 (CVB3 Nancy virus) was 1.4 µM and the EC50 (EV-D68; [4]) was 2.3 µM.

With `CN(C)CCNC(=O)c1cc(C2CC2)nc2c1cnn2C` [Compound 17, 6-cyclopropyl-N-[2-(dimethylamino)ethyl]-1-methyl-1H-pyrazolo[3,4-b]pyridine-4-carboxamide] the CC50 (RD cells) was > 300 µM.

For `CCn1ncc2c(C(=O)NCCN(C)C)cc(C)nc21` [Compound 15a, N-[2-(dimethylamino)ethyl]-1-ethyl-6-methyl-1H-pyrazolo[3,4-b]pyridine-4-carboxamide], the CC50 (RD cells) was > 300 µM and the EC50 (EV-D68; [4]) was 18.3 µM.

In the case of `CC(C)n1ncc2c(C(=O)NCCN(C)C)cc(C3CC3)nc21` [Compound 7d, 6-cyclopropyl-N-[2-(dimethylamino)ethyl]-1-(propan-2-yl)-1H-pyrazolo[3,4-b]pyridine-4-carboxamide], the “binding to EV-A71 2C protein” value [1] is reported as “dose-response binding”, the CC50 (in vitro; CC50 (EV-A71 Tainan/4643/1998)) is reported as 200 µM and the CC50 (in vitro; [5]) is reported as 200 µM. The CC50 (in vitro; [6]) was 200 µM, the CC50 (in vitro; [7]) was 200 µM and the CC50 (in vitro; [8]) was 200 µM. It also gave a CC50 (in vitro; [9]) of 200 µM, a CC50 (in vitro; [10]) of 200 µM and a CC50 (in vitro; [2]) of 200 µM. The CC50 (in vitro; [11]) was 200 µM, the EC50 (EV-A71; [3]) was 0.8 µM and the EC50 (EV-A71; read-out: EC50, EV-A71 A71 MP4) was 0.1 µM. For the same compound, the EC50 (EV-A71; [12]) was 0.1 µM, the EC50 (EV-A71; [13]) was 0.06 µM and the “EC50 values in words (summary across viruses)” value (EV-D68, EV-A71, and CVB3) was “nanomolar range”. The EC50 (EV-D68, EV-A71, and CVB3) was 0.04 to 0.1 µM, the “binding to CVB3 2C protein” value (CVB3 Nancy 2C protein) was “dose-response binding” and the EC50 (CVB3 Nancy virus) was 0.2 µM. The EC50 (EV-D68; [4]) was 0.1 µM, the EC50 (EV-D68; [14]) was 0.04 µM and the EC50 (EV-D68; [15]) was 0.04 µM. It also gave an EC50 (EV-D68; [16]) of 0.1 µM, an EC50 (EV-D68; [17]) of 0.1 µM and an EC50 (EV-D68; [18]) of 0.1 µM.

For `CC(CN(C)C)NC(=O)c1cc(C(C)C)nc2c1cnn2C(C)C` (stereo not drawn) [Compound 10c, N-[1-(dimethylamino)propan-2-yl]-1,6-bis(propan-2-yl)-1H-pyrazolo[3,4-b]pyridine-4-carboxamide], the CC50 (RD cells) was > 100 µM, the CC50 (in vitro; [2]) was 70.3 µM and the EC50 (EV-A71; [3]) was 1 µM. The EC50 (CVB3 Nancy virus) was 0.1 µM and the EC50 (EV-D68; [4]) was 0.1 µM.
